# Laboratory results as given in ChEMBL document CHEMBL1147101, “Development and persistence of antimicrobial resistance in Pseudomonas aeruginosa: a longitudinal observation in mechanically ventilated patients” (Antimicrob Agents Chemother, 2007).
# Calls of active or inactive are those of the source. No cut-off for these calls is given here.
# Columns and labels:
# Assay type in all cases: functional, organism-based
# Conditions in all cases: Trachea
# Pseudomonas aeruginosa [1] = test: Antimicrobial activity against Pseudomonas aeruginosa 65.36-4 tracheal isolates from mechanically ventilated tuberculosis patient
# Pseudomonas aeruginosa [2] = test: Antimicrobial activity against Pseudomonas aeruginosa 2A6 tracheal isolates from mechanically ventilated tuberculosis patient
# Pseudomonas aeruginosa [3] = test: Antimicrobial activity against Pseudomonas aeruginosa 1B9 tracheal isolates from mechanically ventilated tuberculosis patient
# Pseudomonas aeruginosa [4] = test: Antimicrobial activity against Pseudomonas aeruginosa 19E2 tracheal isolates from mechanically ventilated chronic respiratory insufficiency patient
# Pseudomonas aeruginosa [5] = test: Antimicrobial activity against Pseudomonas aeruginosa 8C4 tracheal isolates from mechanically ventilated chronic respiratory insufficiency patient
# Pseudomonas aeruginosa [6] = test: Antimicrobial activity against Pseudomonas aeruginosa 5F2 tracheal isolates from mechanically ventilated chronic respiratory insufficiency patient
# Pseudomonas aeruginosa [7] = test: Antimicrobial activity against Pseudomonas aeruginosa 8B11 tracheal isolates from mechanically ventilated chronic respiratory insufficiency patient
# Pseudomonas aeruginosa [8] = test: Antimicrobial activity against Pseudomonas aeruginosa 3D10 tracheal isolates from mechanically ventilated chronic respiratory insufficiency patient
# Pseudomonas aeruginosa [9] = test: Antimicrobial activity against Pseudomonas aeruginosa 2A9 tracheal isolates from mechanically ventilated tuberculosis patient
# Pseudomonas aeruginosa [10] = test: Antimicrobial activity against Pseudomonas aeruginosa 5H6 tracheal isolates from mechanically ventilated chronic respiratory insufficiency patient
# Pseudomonas aeruginosa [11] = test: Antimicrobial activity against Pseudomonas aeruginosa 29F6 tracheal isolates from mechanically ventilated chronic respiratory insufficiency patient
# Pseudomonas aeruginosa [12] = test: Antimicrobial activity against Pseudomonas aeruginosa 24G1 tracheal isolates from mechanically ventilated chronic respiratory insufficiency patient
# Pseudomonas aeruginosa [13] = test: Antimicrobial activity against Pseudomonas aeruginosa 9A10 tracheal isolates from mechanically ventilated chronic respiratory insufficiency patient
# Pseudomonas aeruginosa [14] = test: Antimicrobial activity against Pseudomonas aeruginosa 12B2 tracheal isolates from mechanically ventilated chronic respiratory insufficiency patient
# Pseudomonas aeruginosa [15] = test: Antimicrobial activity against Pseudomonas aeruginosa 19D9 tracheal isolates from mechanically ventilated chronic respiratory insufficiency patient
# Pseudomonas aeruginosa [16] = test: Antimicrobial activity against Pseudomonas aeruginosa 15H5 tracheal isolates from mechanically ventilated chronic respiratory insufficiency patient
# Pseudomonas aeruginosa [17] = test: Antimicrobial activity against Pseudomonas aeruginosa 9A3 tracheal isolates from mechanically ventilated chronic respiratory insufficiency patient
# Pseudomonas aeruginosa [18] = test: Antimicrobial activity against Pseudomonas aeruginosa 24E5 tracheal isolates from mechanically ventilated chronic respiratory insufficiency patient
# Pseudomonas aeruginosa [19] = test: Antimicrobial activity against Pseudomonas aeruginosa 2A7 tracheal isolates from mechanically ventilated tuberculosis patient
# Pseudomonas aeruginosa [20] = test: Antimicrobial activity against Pseudomonas aeruginosa 2C2 tracheal isolates from mechanically ventilated tuberculosis patient
# Pseudomonas aeruginosa [21] = test: Antimicrobial activity against Pseudomonas aeruginosa 9A1 tracheal isolates from mechanically ventilated chronic respiratory insufficiency patient
# Pseudomonas aeruginosa [22] = test: Antimicrobial activity against Pseudomonas aeruginosa 8A2 tracheal isolates from mechanically ventilated chronic respiratory insufficiency patient
# Pseudomonas aeruginosa [23] = test: Antimicrobial activity against Pseudomonas aeruginosa 9B5 tracheal isolates from mechanically ventilated chronic respiratory insufficiency patient
# Pseudomonas aeruginosa [24] = test: Antimicrobial activity against Pseudomonas aeruginosa 13E1 tracheal isolates from mechanically ventilated chronic respiratory insufficiency patient
# Pseudomonas aeruginosa [25] = test: Antimicrobial activity against Pseudomonas aeruginosa 12A3 tracheal isolates from mechanically ventilated chronic respiratory insufficiency patient
# Pseudomonas aeruginosa [26] = test: Antimicrobial activity against Pseudomonas aeruginosa 12A7 tracheal isolates from mechanically ventilated chronic respiratory insufficiency patient
# Pseudomonas aeruginosa [27] = test: Antimicrobial activity against Pseudomonas aeruginosa 2F6 tracheal isolates from mechanically ventilated tuberculosis patient
# Pseudomonas aeruginosa [28] = test: Antimicrobial activity against Pseudomonas aeruginosa 2C1 tracheal isolates from mechanically ventilated tuberculosis patient
# Pseudomonas aeruginosa [29] = test: Antimicrobial activity against Pseudomonas aeruginosa 2A5 tracheal isolates from mechanically ventilated chronic respiratory insufficiency patient
# Pseudomonas aeruginosa [30] = test: Antimicrobial activity against Pseudomonas aeruginosa 10B3 tracheal isolates from mechanically ventilated chronic respiratory insufficiency patient
# Pseudomonas aeruginosa [31] = test: Antimicrobial activity against Pseudomonas aeruginosa 65.68-4 tracheal isolates from mechanically ventilated tuberculosis patient
# Pseudomonas aeruginosa [32] = test: Antimicrobial activity against Pseudomonas aeruginosa 3B1 tracheal isolates from mechanically ventilated tuberculosis patient
# Pseudomonas aeruginosa [33] = test: Antimicrobial activity against Pseudomonas aeruginosa 19E9 tracheal isolates from mechanically ventilated chronic respiratory insufficiency patient
# Pseudomonas aeruginosa [34] = test: Antimicrobial activity against Pseudomonas aeruginosa 19C7 tracheal isolates from mechanically ventilated chronic respiratory insufficiency patient
# Pseudomonas aeruginosa [35] = test: Antimicrobial activity against Pseudomonas aeruginosa 2A2 tracheal isolates from mechanically ventilated tuberculosis patient
# Pseudomonas aeruginosa [36] = test: Antimicrobial activity against Pseudomonas aeruginosa 15G2 tracheal isolates from mechanically ventilated chronic respiratory insufficiency patient
# Pseudomonas aeruginosa [37] = test: Antimicrobial activity against Pseudomonas aeruginosa 29G8 tracheal isolates from mechanically ventilated chronic respiratory insufficiency patient
# Pseudomonas aeruginosa [38] = test: Antimicrobial activity against Pseudomonas aeruginosa 65.68-2 tracheal isolates from mechanically ventilated tuberculosis patient
# Pseudomonas aeruginosa [39] = test: Antimicrobial activity against Pseudomonas aeruginosa 29G6 tracheal isolates from mechanically ventilated chronic respiratory insufficiency patient
# Pseudomonas aeruginosa [40] = test: Antimicrobial activity against Pseudomonas aeruginosa 29G7 tracheal isolates from mechanically ventilated chronic respiratory insufficiency patient
# Pseudomonas aeruginosa [41] = test: Antimicrobial activity against Pseudomonas aeruginosa 8A12 tracheal isolates from mechanically ventilated chronic respiratory insufficiency patient
# Pseudomonas aeruginosa [42] = test: Antimicrobial activity against Pseudomonas aeruginosa P21.21 tracheal isolates from mechanically ventilated tuberculosis patient
# Pseudomonas aeruginosa [43] = test: Antimicrobial activity against Pseudomonas aeruginosa P21.23 tracheal isolates from mechanically ventilated tuberculosis patient
# Pseudomonas aeruginosa [44] = test: Antimicrobial activity against Pseudomonas aeruginosa 22D6 tracheal isolates from mechanically ventilated chronic respiratory insufficiency patient
# Pseudomonas aeruginosa [45] = test: Antimicrobial activity against Pseudomonas aeruginosa 22D2 tracheal isolates from mechanically ventilated chronic respiratory insufficiency patient
# Pseudomonas aeruginosa [46] = test: Antimicrobial activity against Pseudomonas aeruginosa 19B3 tracheal isolates from mechanically ventilated chronic respiratory insufficiency patient
# Pseudomonas aeruginosa [47] = test: Antimicrobial activity against Pseudomonas aeruginosa 10A6 tracheal isolates from mechanically ventilated chronic respiratory insufficiency patient
# Pseudomonas aeruginosa [48] = test: Antimicrobial activity against Pseudomonas aeruginosa 10A9 tracheal isolates from mechanically ventilated chronic respiratory insufficiency patient
# Pseudomonas aeruginosa [49] = test: Antimicrobial activity against Pseudomonas aeruginosa 3D1 tracheal isolates from mechanically ventilated chronic respiratory insufficiency patient
# Pseudomonas aeruginosa [50] = test: Antimicrobial activity against Pseudomonas aeruginosa 19B6 tracheal isolates from mechanically ventilated chronic respiratory insufficiency patient
# Pseudomonas aeruginosa [51] = test: Antimicrobial activity against Pseudomonas aeruginosa 3E2 tracheal isolates from mechanically ventilated chronic respiratory insufficiency patient
# Pseudomonas aeruginosa [52] = test: Antimicrobial activity against Pseudomonas aeruginosa 5G3 tracheal isolates from mechanically ventilated chronic respiratory insufficiency patient
# Pseudomonas aeruginosa [53] = test: Antimicrobial activity against Pseudomonas aeruginosa 2A3 tracheal isolates from mechanically ventilated tuberculosis patient
# Pseudomonas aeruginosa [54] = test: Antimicrobial activity against Pseudomonas aeruginosa 65.68-1 tracheal isolates from mechanically ventilated tuberculosis patient
# Pseudomonas aeruginosa [55] = test: Antimicrobial activity against Pseudomonas aeruginosa 65.33-4 tracheal isolates from mechanically ventilated tuberculosis patient
# Pseudomonas aeruginosa [56] = test: Antimicrobial activity against Pseudomonas aeruginosa 65.36-1 tracheal isolates from mechanically ventilated tuberculosis patient
# Pseudomonas aeruginosa [57] = test: Antimicrobial activity against Pseudomonas aeruginosa 1A9 tracheal isolates from mechanically ventilated tuberculosis patient
# Pseudomonas aeruginosa [58] = test: Antimicrobial activity against Pseudomonas aeruginosa 65.36-2 tracheal isolates from mechanically ventilated tuberculosis patient
# Pseudomonas aeruginosa [59] = test: Antimicrobial activity against Pseudomonas aeruginosa 2A5 tracheal isolates from mechanically ventilated tuberculosis patient
# Pseudomonas aeruginosa [60] = test: Antimicrobial activity against Pseudomonas aeruginosa 65.33-2 tracheal isolates from mechanically ventilated tuberculosis patient
structure (smiles),measurement,setting,value
NCC[C@H](O)C(=O)N[C@@H]1C[C@H](N)[C@@H](O[C@H]2O[C@H](CN)[C@@H](O)[C@H](O)[C@H]2O)[C@H](O)[C@H]1O[C@H]1O[C@H](CO)[C@@H](O)[C@H](N)[C@H]1O,Activity,Pseudomonas aeruginosa [1],inactive
same,Activity,Pseudomonas aeruginosa [2],inactive
same,Activity,Pseudomonas aeruginosa [3],inactive
same,Activity,Pseudomonas aeruginosa [4],Active
same,Activity,Pseudomonas aeruginosa [5],Active
same,Activity,Pseudomonas aeruginosa [6],Active
same,Activity,Pseudomonas aeruginosa [7],Active
same,Activity,Pseudomonas aeruginosa [8],Active
same,Activity,Pseudomonas aeruginosa [9],inactive
same,Activity,Pseudomonas aeruginosa [10],Active
same,Activity,Pseudomonas aeruginosa [11],Active
same,Activity,Pseudomonas aeruginosa [12],Active
same,Activity,Pseudomonas aeruginosa [13],Active
same,Activity,Pseudomonas aeruginosa [14],Active
same,Activity,Pseudomonas aeruginosa [15],Active
same,Activity,Pseudomonas aeruginosa [16],Active
same,Activity,Pseudomonas aeruginosa [17],Active
same,Activity,Pseudomonas aeruginosa [18],Active
same,Activity,Pseudomonas aeruginosa [19],inactive
same,Activity,Pseudomonas aeruginosa [20],Active
same,Activity,Pseudomonas aeruginosa [21],Active
same,Activity,Pseudomonas aeruginosa [22],Active
same,Activity,Pseudomonas aeruginosa [23],Active
same,Activity,Pseudomonas aeruginosa [24],Active
same,Activity,Pseudomonas aeruginosa [25],Active
same,Activity,Pseudomonas aeruginosa [26],Active
same,Activity,Pseudomonas aeruginosa [27],inactive
same,Activity,Pseudomonas aeruginosa [28],inactive
same,Activity,Pseudomonas aeruginosa [29],Active
same,Activity,Pseudomonas aeruginosa [30],Active
same,Activity,Pseudomonas aeruginosa [31],Active
same,Activity,Pseudomonas aeruginosa [32],Active
same,Activity,Pseudomonas aeruginosa [33],Active
same,Activity,Pseudomonas aeruginosa [34],Active
same,Activity,Pseudomonas aeruginosa [35],Active
same,Activity,Pseudomonas aeruginosa [36],Active
same,Activity,Pseudomonas aeruginosa [37],Active
same,Activity,Pseudomonas aeruginosa [38],Active
same,Activity,Pseudomonas aeruginosa [39],Active
same,Activity,Pseudomonas aeruginosa [40],Active
same,Activity,Pseudomonas aeruginosa [41],Active
same,Activity,Pseudomonas aeruginosa [42],Active
same,Activity,Pseudomonas aeruginosa [43],Active
same,Activity,Pseudomonas aeruginosa [44],Active
same,Activity,Pseudomonas aeruginosa [45],Active
same,Activity,Pseudomonas aeruginosa [46],Active
same,Activity,Pseudomonas aeruginosa [47],Active
same,Activity,Pseudomonas aeruginosa [48],Active
same,Activity,Pseudomonas aeruginosa [49],Active
same,Activity,Pseudomonas aeruginosa [50],Active
same,Activity,Pseudomonas aeruginosa [51],Active
same,Activity,Pseudomonas aeruginosa [52],Active
same,Activity,Pseudomonas aeruginosa [53],Active
same,Activity,Pseudomonas aeruginosa [54],Active
CCn1cc(C(=O)O)c(=O)c2cc(F)c(N3CCNCC3)cc21,Activity,Pseudomonas aeruginosa [1],Active
same,Activity,Pseudomonas aeruginosa [2],Active
same,Activity,Pseudomonas aeruginosa [3],Active
same,Activity,Pseudomonas aeruginosa [4],Active
same,Activity,Pseudomonas aeruginosa [5],Active
same,Activity,Pseudomonas aeruginosa [6],Active
same,Activity,Pseudomonas aeruginosa [55],Active
same,Activity,Pseudomonas aeruginosa [7],Active
same,Activity,Pseudomonas aeruginosa [8],Active
same,Activity,Pseudomonas aeruginosa [9],Active
same,Activity,Pseudomonas aeruginosa [10],Active
same,Activity,Pseudomonas aeruginosa [11],Active
same,Activity,Pseudomonas aeruginosa [12],Active
same,Activity,Pseudomonas aeruginosa [13],Active
same,Activity,Pseudomonas aeruginosa [14],Active
same,Activity,Pseudomonas aeruginosa [15],inactive
same,Activity,Pseudomonas aeruginosa [16],Active
same,Activity,Pseudomonas aeruginosa [17],Active
same,Activity,Pseudomonas aeruginosa [18],Active
same,Activity,Pseudomonas aeruginosa [19],Active
same,Activity,Pseudomonas aeruginosa [20],Active
same,Activity,Pseudomonas aeruginosa [21],Active
same,Activity,Pseudomonas aeruginosa [22],Active
same,Activity,Pseudomonas aeruginosa [23],Active
same,Activity,Pseudomonas aeruginosa [24],Active
same,Activity,Pseudomonas aeruginosa [25],Active
same,Activity,Pseudomonas aeruginosa [56],Active
same,Activity,Pseudomonas aeruginosa [26],Active
same,Activity,Pseudomonas aeruginosa [27],Active
same,Activity,Pseudomonas aeruginosa [28],Active
same,Activity,Pseudomonas aeruginosa [29],Active
same,Activity,Pseudomonas aeruginosa [30],Active
same,Activity,Pseudomonas aeruginosa [31],Active
same,Activity,Pseudomonas aeruginosa [32],Active
same,Activity,Pseudomonas aeruginosa [33],Active
same,Activity,Pseudomonas aeruginosa [34],Active
same,Activity,Pseudomonas aeruginosa [35],Active
same,Activity,Pseudomonas aeruginosa [57],Active
same,Activity,Pseudomonas aeruginosa [36],inactive
same,Activity,Pseudomonas aeruginosa [58],Active
same,Activity,Pseudomonas aeruginosa [37],Active
same,Activity,Pseudomonas aeruginosa [38],Active
same,Activity,Pseudomonas aeruginosa [39],Active
same,Activity,Pseudomonas aeruginosa [40],Active
same,Activity,Pseudomonas aeruginosa [41],Active
same,Activity,Pseudomonas aeruginosa [42],Active
same,Activity,Pseudomonas aeruginosa [43],Active
same,Activity,Pseudomonas aeruginosa [44],Active
same,Activity,Pseudomonas aeruginosa [45],Active
same,Activity,Pseudomonas aeruginosa [59],Active
same,Activity,Pseudomonas aeruginosa [46],Active
same,Activity,Pseudomonas aeruginosa [47],Active
same,Activity,Pseudomonas aeruginosa [48],Active
same,Activity,Pseudomonas aeruginosa [49],Active
same,Activity,Pseudomonas aeruginosa [60],Active
same,Activity,Pseudomonas aeruginosa [50],Active
same,Activity,Pseudomonas aeruginosa [51],Active
same,Activity,Pseudomonas aeruginosa [52],Active
same,Activity,Pseudomonas aeruginosa [53],Active
same,Activity,Pseudomonas aeruginosa [54],Active
